How the values were obtained:
[1] = test system: adenylate cyclase (AC384GK, catalytic domain of CyaA); assay: CaM-dependent adenylate cyclase activity with or without calmidazolium; assay type: biochemical, Bordetella pertussis; details: CDZ 10 µM, assayed in the presence of 1 µM CaM
Method: (§1) T PCK-treated trypsin (Millipore Sigma, Burlington, MA, USA) for 10 min at 30°C to digest the adenylate cyclase that remained at the external surface of the erythrocytes. A 5-fold excess of soybean trypsin inhibitor was added and cells were washed with buffer A and lysed with 0.1% Tween 20. The activity protected from trypsin digestion corresponds to the internalized toxin. Activities are expressed as percentages of total toxin added to the erythrocytes (taken as 100%) and represent average values from at least three independent measurements. One unit of CyaA activity corresponds to 1 μmol of cAM P formed per min at 30°C and pH 8.0. The bound and internalized AC activities measured with the CyaA recombinant proteins were normalized to that of the WT CyaA toxin. […]
(§2) then resuspended in cold buffer A plus 2 mM CaCl2 and split in two fractions. […] After addition of soybean trypsin inhibitor, the cells were washed with buffer A then lysed with 0.1% Tween 20 and the internalized AC activity protected from trypsin digestion was measured and expressed as a percentage of bound AC activity. […]
(§3) Tryptophan fluorescence is used for the SEC profiles because this allows monitoring the […]
Figure S15: CaM-dependent activation of AC with or without calmidazolium (C D Z ) . […] Th e adenylate cyclase activity is expressed as mol of cAMP per sec per mol of AC384GK. […]

[2] = test system: CaM; assay: Size exclusion chromatography of P454, H and AC364 with CaM in the presence of CDZ; assay type: binding; details: SEC, buffer B, CaM 15 µM, CDZ 40 µM, tryptophan fluorescence
Method: T PCK-treated trypsin (Millipore Sigma, Burlington, MA, USA) for 10 min at 30°C to digest the adenylate cyclase that remained at the external surface of the erythrocytes. A 5-fold excess of soybean trypsin inhibitor was added and cells were washed with buffer A and lysed with 0.1% Tween 20. The activity protected from trypsin digestion corresponds to the internalized toxin. Activities are expressed as percentages of total toxin added to the erythrocytes (taken as 100%) and represent average values from at least three independent measurements. One unit of CyaA activity corresponds to 1 μmol of cAM P formed per min at 30°C and pH 8.0. The bound and internalized AC activities measured with the CyaA recombinant proteins were normalized to that of the WT CyaA toxin.
For the CyaA intoxication experiments in the presence of calmidazolium (CDZ), in order to minimize the cell exposure to this potent CaM inhibitor, we performed a two-step intoxication assay as described originally by Rogel and Hanski 19. For this, the erythrocytes (5 x 10^8 cells/mL) were in a first step incubated with CyaA (1 μg/mL, 5.6 nM) in buffer A plus 2 mM CaCl2 at 4 °C for 30 min. In these conditions, the toxin can bind to the cell membrane but cannot translocate across membrane 19. […]
as §2
The SEC experiments were performed on a TSKgel G3000SW 7.5 mm ID * 30 cm - column equilibrated in buffer B at a flow rate of 0.6 mL/min at RT. The elution profiles were measured by absorbance at 280 nm, conductivity and by tryptophan fluorescence on a FP750 fluorometer (Ex.: 280 nm; Em.: 340 nm; bandwidths 10/10 nm ) equipped with a on -line cell .
as §3
weak fluorescence signal. […]
fluorescence signal. […]

[3] = test system: sheep erythrocytes; assay: Two-step CyaA intoxication assay with or without calmidazolium; assay type: cell-based; details: CyaA […] bound at 4 °C 30 min, 10 μM CDZ added just prior to shift from 4 to 37 °C; 2, 5, 10 min; three independent replicates
Method: as §1, §2, §3

[4] = biological target: holo-CaM; details: cited from earlier work
[5] = Membrane permeabilization of ANTS/DPX-loaded LUVs
Method: To monitor membrane permeabilization induced by peptides, ANTS (fluorophore probe) and
DPX (quencher) were encapsulated into large unilamellar vesicles (LUVs). The LUVs were
prepared at a concentration of 10 mM lipid at a POPC:PO PG molar ratio of 8:2 containing 20
mM ANTS and 60 mM DPX. The multilamellar vesicle suspension was extrudedthrough 0.4-
and 0.2 μm polycarbonate filters to produce LUVs. The unencapsulated ANT S a nd DPX we re
removed by gel filtration with a 5 mL Sephadex G -25 column (GE Healthcare Life Sciences ).
For permeabilization assays, LUVs were incubated in buffer A at 0.45 mM lipid
concentration at 25°C in a 101-QS cuvette (Hellma, France) and under constant stirring.
excitation wavelength was set at 390 nm and the emission of ANTS was continuously
measured at 515 nm. The maximum intensity of permeabilization, corresponding to the
maximum recovery of ANTS fluorescence, was measured after addition of 0.1% of Triton
X100. The concentration of membrane-bound peptide s required to induce the recovery of half
intensity of the ANTS fluorescence (C P1/2) was extracted from the permeabilization intensity
a s a function of peptide concentration 1.
LUVs were incubated in buffer B at a lipid concentration of 0.45 mM.
After a few seconds of permeabilization,
holo-Ca M wa s added t o t he solution at a peptide:Ca M molar ratio of 1:3. EDT A wa s
subsequently added in excess to chelate calcium and convert holo -CaM to apo -C a M .

[6] = Peptide titrations by SUVs followed by tryptophan fluorescence (solution-to-membrane partition); assay type: physicochemical
In short: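 Peptides were titrated with POPC:POPG (8:2) SUVs at 25°C, with tryptophan fluorescence excited at 280 nm and emission recorded 300–400 nm. The 330/370 nm intensity ratio, corrected for SUV baseline, was fitted to a partition model to obtain the solution-to-membrane partition coefficient KX.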

[7] = Synchrotron radiation circular dichroism, alpha-helical content (Bestsel); assay type: physicochemical; details: 25 °C, far-UV SRCD
Method: Synchrotron Radiation Circular Dichroism
Synchrotron radiation circular dichroism (SRCD) was performed on the DISCO beamline of the synchrotron SOLEIL (Saint -Aubin, France) . Spectra were recorded at 25°C with an integration time of 1.2 s and a bandwidth of 1 nm with a resolution of 1 nm. A far-UV spectrum represents the average of four individual scans. QS cells (Hellma, France) with a pathlength of 20, 50, 100 or 200 μm (depending on final protein concentrations) were used to record spectra in the fa r -UV range (from 190 to 250 nm). CD spectra of peptides and proteins were measured in buffers A and B, 20% of trifluoroethanol (TFE), in the presence of SUVs (POPC :PO PG 8: 2) or Ca M. Secondary structure content was estimated using Bestsel software […]
Table S8: Estimation of the α -helical content of P454-derived peptides. The secondary structure content is estimated using the on-line Bestsel software 17 available at http://bestsel.elte.hu/index.php. […]
peptide in buffer A, in 20% TFE and in the presence of POPC POPG (molar ratio 8:2) at 2 mM lipid concentration. The far -UV CD spectra of several P454-derived peptides are shown […]

[8] = Sedimentation velocity analytical ultracentrifugation; assay type: physicochemical; details: 57 µM peptide alone, 20 °C, buffer B
From the text: 400 nm at a scan rate of 100 nm/min, with an excitation wavelength of 280 nm. Fluorescence emission spectra were corrected for SUV or CaM baselines . Fluorescence intensity ratio at 330 nm over 370 nm was use d to measure the partition coefficient (K X) of peptides between the solution andmembrane s 1, 12 and the affinity (K d) of peptides for CaM 13.
Determination of partition coefficient KX and dissociation constant Kd from […]
The partition coefficient KX is defined as the ratio of protein in the lipid (PL) and in buffer […]
(PW) pha se s 12, 14, expressed by: KKXX = [LL ]? , giving[PPWW ] [PPWW ]= [WW], where [W] the […]
concentration of water (55.5 M) and [L] the lipid concentration. […]
The dissociation constant, Kd, is obtained from titration experiments of the P454-derived peptides by CaM and is expressed as follows: KK dd = [PP ]∗[CCCCCC ][PP:CCCCCC] , given KKdd[CCCCCC]= [PP ][PP :CCCCCC]and the fraction of complex, fP:CaM, i s: ffPP:CCCCCC = [PP :CCCCCC ][PP:CCCCCC]+[PP]= 11+ [PP ]= 11+ KKdd. […]
ratio 1:1 (at 70 µM each). […] Detection of protein concentration as a function of radial position and time was monitored with the ProteomeLab software (Beckman Coulter, […]
Brea, CA, USA) by both absorbance at 280 nm and interferometry. […] SV scans were analyzed using the continuous size distribution model c(s) of the software Sedfit 15. […]

Row | Compound | Effect on AC enzymatic activity [1] | Effect of CDZ on CaM association with the AC domain ([2]; AC364 10 µM) | Effect of CDZ on the H:CaM complex ([2]; H 10 µM) | Effect of CDZ on CaM association with P454 ([2]; P454 10 µM) | Amount of internalized AC with CDZ [3] | Ki [4] | CP1/2, peptide concentration required to induce recovery of 50% of ANTS fluorescence intensity upon LUVs permeabilization ([5]; ANTS:DPX LUVs POPC:POPG 8:2, 0.45 mM lipid, buffer A pH 7.4, 25 °C, ex 390/em 515 nm, S.D. ± 5%) | Effect of holo-CaM addition on peptide-induced vesicle permeabilization ([5]; LUVs 0.45 mM lipid, buffer B (2 mM CaCl2), peptide:CaM molar ratio 1:3) | Partition coefficient KX ([6]; POPC:POPG 8:2 SUVs, buffer A pH 7.4, 25 °C, tryptophan fluorescence ratio 330/370 nm, S.D. within ± 10%) | Partition coefficient Kx ([6]; POPC:POPG 8:2 membranes) | Kd ([6]; converted from KX: [W]/KX = Kd, [W] = 55.5 M, read-out: Kd for POPC:POPG 8:2) | ∆GKx for POPC POPG 8:2 ([6]; ∆GKx = -RT Ln Kx, S.D. within ± 10%) | alpha-helical content, TFE 20% ([7]; 20% TFE) | alpha-helical content, POPC:POPG 8:2 ([7]; SUVs POPC:POPG 8:2 at 2 mM lipid) | alpha-helical content, Solution ([7]; buffer A) | Sedimentation coefficient [8]
1 | Clc1ccc(C(c2ccc(Cl)cc2)n2cc[n+](CC(OCc3ccc(Cl)cc3Cl)c3ccc(Cl)cc3Cl)c2)cc1 (stereo not shown) [CDZ, Calmidazolium chloride] | no inhibitory effect | not with the AC domain | partially inhibited | can specifically inhibit | drastically reduced | 0.01 to 0.05 µM |  |  |  |  |  |  |  |  |  | 
2 | CC[C@H](C)[C@H](NC(=O)[C@H](C)NC(=O)[C@H](Cc1c[nH]cn1)NC(=O)[C@@H](NC(=O)[C@H](CC(C)C)NC(=O)[C@H](CCCNC(=N)N)NC(=O)[C@H](CCC(N)=O)NC(=O)[C@H](C)NC(=O)[C@H](C)NC(=O)[C@H](C)NC(=O)[C@@H](NC(=O)[C@H](C)NC(=O)[C@H](CCC(N)=O)NC(=O)[C@H](C)NC(=O)CNC(=O)[C@H](CCC(N)=O)NC(=O)[C@H](CC(C)C)NC(=O)[C@H](C)NC(=O)[C@H](CCCNC(=N)N)NC(=O)[C@H](CCC(N)=O)NC(=O)CNC(=O)[C@H](Cc1c[nH]c2ccccc12)NC(=O)[C@H](Cc1c[nH]cn1)NC(=O)[C@H](C)NC(=O)[C@H](CO)NC(=O)[C@H](C)NC(C)=O)C(C)C)C(C)C)C(=O)N[C@@H](C)C(=O)N[C@@H](CC(C)C)C(=O)N[C@@H](CCSC)C(=O)N[C@H](C(=O)N[C@@H](CCC(N)=O)C(N)=O)[C@@H](C)O [P454] |  |  |  |  |  |  | 0.07 µM | immediately stopped | 790 ×10^3 | 790 000 | 70 µM | -8 kcal/mol | 60 ± 2% | 50 ± 1% | 17 ± 2% | 0.65 S
